{"source": "PubChem BioAssay (NCI)", "experiment_in_all_cases": "NCI tumour cell line growth inhibition, 48 h", "key": {"HCT-116 colon": {"tested_on": "HCT-116 colon"}, "NCI-H460 lung": {"tested_on": "NCI-H460 lung"}, "T-47D breast": {"tested_on": "T-47D breast"}, "NCI/ADR-RES ovarian": {"tested_on": "NCI/ADR-RES ovarian"}, "SW-620 colon": {"tested_on": "SW-620 colon"}, "SR leukemia": {"tested_on": "SR leukemia"}, "SF-539 CNS": {"tested_on": "SF-539 CNS"}, "HOP-62 NSCLC": {"tested_on": "HOP-62 NSCLC"}, "SK-MEL-2 melanoma": {"tested_on": "SK-MEL-2 melanoma"}, "M19-MEL melanoma": {"tested_on": "M19-MEL melanoma"}, "SNB-78 CNS": {"tested_on": "SNB-78 CNS"}}, "note": "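96-well plates; 48 h exposure; 5 concentrations. Endpoints by linear interpolation between flanking doses. Not reached: highest tested concentration assigned. Definition used: TGI = concentration required for complete inhibition of growth.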"}
{"smiles": "O=c1c(S(=O)(=O)Oc2ccccc2)coc2cc(F)ccc12", "values": [{"measurement": "TGI", "setting": "HCT-116 colon", "result": "> 100", "unit": "µM"}, {"measurement": "TGI", "setting": "NCI-H460 lung", "result": "> 100", "unit": "µM"}, {"measurement": "TGI", "setting": "T-47D breast", "result": "> 100", "unit": "µM"}, {"measurement": "TGI", "setting": "NCI/ADR-RES ovarian", "result": "> 100", "unit": "µM"}, {"measurement": "TGI", "setting": "SW-620 colon", "result": "> 100", "unit": "µM"}, {"measurement": "TGI", "setting": "SR leukemia", "result": "> 100", "unit": "µM"}, {"measurement": "TGI", "setting": "SF-539 CNS", "result": "> 100", "unit": "µM"}, {"measurement": "TGI", "setting": "HOP-62 NSCLC", "result": "> 100", "unit": "µM"}, {"measurement": "TGI", "setting": "SK-MEL-2 melanoma", "result": "> 100", "unit": "µM"}]}
{"smiles": "CCOC(=O)c1ccc(NC(NC(=O)CC)(C(F)(F)F)C(F)(F)F)cc1", "values": [{"measurement": "TGI", "setting": "HCT-116 colon", "result": "> 100", "unit": "µM"}, {"measurement": "TGI", "setting": "NCI-H460 lung", "result": "> 100", "unit": "µM"}, {"measurement": "TGI", "setting": "T-47D breast", "result": "> 100", "unit": "µM"}, {"measurement": "TGI", "setting": "NCI/ADR-RES ovarian", "result": "> 100", "unit": "µM"}, {"measurement": "TGI", "setting": "SW-620 colon", "result": "> 100", "unit": "µM"}, {"measurement": "TGI", "setting": "SR leukemia", "result": "> 100", "unit": "µM"}, {"measurement": "TGI", "setting": "SF-539 CNS", "result": "> 100", "unit": "µM"}, {"measurement": "TGI", "setting": "HOP-62 NSCLC", "result": "> 100", "unit": "µM"}, {"measurement": "TGI", "setting": "SK-MEL-2 melanoma", "result": "> 100", "unit": "µM"}]}
{"smiles": "CCCN(CCC)c1c([N+](=O)[O-])cc(C(=O)N(C)C)cc1[N+](=O)[O-]", "values": [{"measurement": "TGI", "setting": "HCT-116 colon", "result": "> 100", "unit": "µM"}, {"measurement": "TGI", "setting": "NCI-H460 lung", "result": "> 100", "unit": "µM"}, {"measurement": "TGI", "setting": "M19-MEL melanoma", "result": "> 100", "unit": "µM"}, {"measurement": "TGI", "setting": "SNB-78 CNS", "result": "> 100", "unit": "µM"}, {"measurement": "TGI", "setting": "SF-539 CNS", "result": "> 100", "unit": "µM"}, {"measurement": "TGI", "setting": "SK-MEL-2 melanoma", "result": "> 100", "unit": "µM"}]}
{"smiles": "CC(C)(Oc1ccc(C(=O)c2ccc(Cl)cc2)cc1Cl)C(=O)N1CCN(c2ccccc2)CC1", "values": [{"measurement": "TGI", "setting": "HCT-116 colon", "result": "> 100", "unit": "µM"}, {"measurement": "TGI", "setting": "NCI-H460 lung", "result": "> 100", "unit": "µM"}, {"measurement": "TGI", "setting": "M19-MEL melanoma", "result": "> 100", "unit": "µM"}, {"measurement": "TGI", "setting": "SNB-78 CNS", "result": "> 100", "unit": "µM"}, {"measurement": "TGI", "setting": "SW-620 colon", "result": "> 100", "unit": "µM"}, {"measurement": "TGI", "setting": "SR leukemia", "result": "> 100", "unit": "µM"}, {"measurement": "TGI", "setting": "SF-539 CNS", "result": "> 100", "unit": "µM"}, {"measurement": "TGI", "setting": "HOP-62 NSCLC", "result": "> 100", "unit": "µM"}, {"measurement": "TGI", "setting": "SK-MEL-2 melanoma", "result": "> 100", "unit": "µM"}]}
{"smiles": "Cc1ccc(CC(=O)Nc2ccc(NC(=O)CNC(=O)/C=C/c3ccc(-c4ccccc4)cc3)cc2C(=O)c2ccccc2)cc1", "values": [{"measurement": "TGI", "setting": "HCT-116 colon", "result": 2.65, "unit": "µM"}, {"measurement": "TGI", "setting": "NCI-H460 lung", "result": 11.1, "unit": "µM"}, {"measurement": "TGI", "setting": "T-47D breast", "result": 3.89, "unit": "µM"}, {"measurement": "TGI", "setting": "NCI/ADR-RES ovarian", "result": 29.8, "unit": "µM"}, {"measurement": "TGI", "setting": "SW-620 colon", "result": 19.5, "unit": "µM"}, {"measurement": "TGI", "setting": "SR leukemia", "result": 4.95, "unit": "µM"}, {"measurement": "TGI", "setting": "SF-539 CNS", "result": 8.85, "unit": "µM"}, {"measurement": "TGI", "setting": "HOP-62 NSCLC", "result": 6.95, "unit": "µM"}, {"measurement": "TGI", "setting": "SK-MEL-2 melanoma", "result": 35.3, "unit": "µM"}]}
{"smiles": "OCCNc1nc2c(N3CCCC3)nc(N3CCNCC3)nc2nc1NCc1ccccc1", "values": [{"measurement": "TGI", "setting": "HCT-116 colon", "result": 21.9, "unit": "µM"}, {"measurement": "TGI", "setting": "NCI-H460 lung", "result": 29.9, "unit": "µM"}, {"measurement": "TGI", "setting": "T-47D breast", "result": 30.8, "unit": "µM"}, {"measurement": "TGI", "setting": "NCI/ADR-RES ovarian", "result": "> 100", "unit": "µM"}, {"measurement": "TGI", "setting": "SW-620 colon", "result": 42.4, "unit": "µM"}, {"measurement": "TGI", "setting": "SR leukemia", "result": 32.7, "unit": "µM"}, {"measurement": "TGI", "setting": "SF-539 CNS", "result": 32, "unit": "µM"}, {"measurement": "TGI", "setting": "HOP-62 NSCLC", "result": 18.1, "unit": "µM"}, {"measurement": "TGI", "setting": "SK-MEL-2 melanoma", "result": 28.7, "unit": "µM"}]}
{"smiles": "COC1=C(OC)C(=O)C(Cc2c(Cl)nc3n2CCS3)=C(C)C1=O", "values": [{"measurement": "TGI", "setting": "HCT-116 colon", "result": 25.3, "unit": "µM"}, {"measurement": "TGI", "setting": "NCI-H460 lung", "result": 30.8, "unit": "µM"}, {"measurement": "TGI", "setting": "T-47D breast", "result": 54.1, "unit": "µM"}, {"measurement": "TGI", "setting": "NCI/ADR-RES ovarian", "result": 34.2, "unit": "µM"}, {"measurement": "TGI", "setting": "SW-620 colon", "result": 33.8, "unit": "µM"}, {"measurement": "TGI", "setting": "SR leukemia", "result": 25.9, "unit": "µM"}, {"measurement": "TGI", "setting": "SF-539 CNS", "result": 28.1, "unit": "µM"}, {"measurement": "TGI", "setting": "HOP-62 NSCLC", "result": 29.1, "unit": "µM"}, {"measurement": "TGI", "setting": "SK-MEL-2 melanoma", "result": 32.2, "unit": "µM"}]}
{"smiles": "O=C(O)C(CO)NC(=O)C1C(C(=O)O)C(c2ccccc2[N+](=O)[O-])C=C(c2ccco2)N1c1ccncc1", "note": "(centres undefined)", "values": [{"measurement": "TGI", "setting": "HCT-116 colon", "result": 3.08, "unit": "µM"}, {"measurement": "TGI", "setting": "NCI-H460 lung", "result": 18.5, "unit": "µM"}, {"measurement": "TGI", "setting": "T-47D breast", "result": 23.9, "unit": "µM"}, {"measurement": "TGI", "setting": "NCI/ADR-RES ovarian", "result": 59, "unit": "µM"}, {"measurement": "TGI", "setting": "SW-620 colon", "result": 3.79, "unit": "µM"}, {"measurement": "TGI", "setting": "SR leukemia", "result": "> 100", "unit": "µM"}, {"measurement": "TGI", "setting": "SF-539 CNS", "result": 3.64, "unit": "µM"}, {"measurement": "TGI", "setting": "HOP-62 NSCLC", "result": 25.2, "unit": "µM"}, {"measurement": "TGI", "setting": "SK-MEL-2 melanoma", "result": 31, "unit": "µM"}]}
{"smiles": "Oc1ccccc1C=Nc1ccccc1N=Cc1ccccc1O", "values": [{"measurement": "TGI", "setting": "HCT-116 colon", "result": "> 100", "unit": "µM"}, {"measurement": "TGI", "setting": "NCI-H460 lung", "result": "> 100", "unit": "µM"}, {"measurement": "TGI", "setting": "M19-MEL melanoma", "result": "> 100", "unit": "µM"}, {"measurement": "TGI", "setting": "SW-620 colon", "result": "> 100", "unit": "µM"}, {"measurement": "TGI", "setting": "SR leukemia", "result": "> 100", "unit": "µM"}, {"measurement": "TGI", "setting": "SF-539 CNS", "result": "> 100", "unit": "µM"}, {"measurement": "TGI", "setting": "HOP-62 NSCLC", "result": "> 100", "unit": "µM"}]}
{"smiles": "O=C1C=C(NCCc2cc(Br)c(O)c(Br)c2)C(=O)c2[nH]cnc21", "values": [{"measurement": "TGI", "setting": "HCT-116 colon", "result": 43.9, "unit": "µM"}, {"measurement": "TGI", "setting": "NCI-H460 lung", "result": "> 100", "unit": "µM"}, {"measurement": "TGI", "setting": "T-47D breast", "result": 88.8, "unit": "µM"}, {"measurement": "TGI", "setting": "NCI/ADR-RES ovarian", "result": "> 100", "unit": "µM"}, {"measurement": "TGI", "setting": "SW-620 colon", "result": "> 100", "unit": "µM"}, {"measurement": "TGI", "setting": "SR leukemia", "result": "> 100", "unit": "µM"}, {"measurement": "TGI", "setting": "SF-539 CNS", "result": "> 100", "unit": "µM"}, {"measurement": "TGI", "setting": "HOP-62 NSCLC", "result": "> 100", "unit": "µM"}, {"measurement": "TGI", "setting": "SK-MEL-2 melanoma", "result": "> 100", "unit": "µM"}]}
{"smiles": "Cc1ccc(Nc2nc(NS(=O)(=O)c3cc(C)c(Cl)cc3S)n[nH]2)cc1", "values": [{"measurement": "TGI", "setting": "HCT-116 colon", "result": "> 100", "unit": "µM"}, {"measurement": "TGI", "setting": "NCI-H460 lung", "result": "> 100", "unit": "µM"}, {"measurement": "TGI", "setting": "T-47D breast", "result": "> 100", "unit": "µM"}, {"measurement": "TGI", "setting": "NCI/ADR-RES ovarian", "result": "> 100", "unit": "µM"}, {"measurement": "TGI", "setting": "SW-620 colon", "result": "> 100", "unit": "µM"}, {"measurement": "TGI", "setting": "SR leukemia", "result": "> 100", "unit": "µM"}, {"measurement": "TGI", "setting": "SF-539 CNS", "result": "> 100", "unit": "µM"}, {"measurement": "TGI", "setting": "HOP-62 NSCLC", "result": "> 100", "unit": "µM"}, {"measurement": "TGI", "setting": "SK-MEL-2 melanoma", "result": "> 100", "unit": "µM"}]}
